In ChEMBL document CHEMBL5233271, “Discovering the Mechanisms of Wikstroelide E as a Potential HIV-Latency-Reversing Agent by Transcriptome Profiling” (J Nat Prod, 2021):
Active and inactive are the calls of the source. No cut-off for these calls is given here.

Legend:
[1] = system: Human immunodeficiency virus; test: Reactivation of latent HIV in human NH1 cells at 5 uM measured after 24 hrs by luciferase based analysis; type: functional, organism-based
[2] = system: Human immunodeficiency virus; test: Reactivation of latent HIV in human NH2 cells at 5 uM measured after 24 hrs by luciferase based analysis; type: functional, organism-based

CC(=O)O[C@@]12C[C@@H](C)[C@@]3(O)[C@@H](C=C(CO)C[C@]4(O)C(=O)C(C)=C[C@@H]34)[C@@H]1C2(C)C
Activity [1]: Active | Activity [2]: Active
